Reference: patent US9994594B2, “Inhibitors of arginase and their therapeutic applications” (MARS, INCORPORATED, priority 2010, dated 2018)
pIC50: −log10 of the molar value. Counter-ions that a name gives are not always drawn. Like-named read-outs stand apart in the source and are kept apart here.

How the values were obtained:
arginase II (ARG II) = molecular target: T1, arginase II (ARG II) (Homo sapiens, UniProt P78540); experiment: Inhibition of arginase II, spectrophotometric urea assay at 530 nm; format: biochemical
T1 sequence (P78540 23-354): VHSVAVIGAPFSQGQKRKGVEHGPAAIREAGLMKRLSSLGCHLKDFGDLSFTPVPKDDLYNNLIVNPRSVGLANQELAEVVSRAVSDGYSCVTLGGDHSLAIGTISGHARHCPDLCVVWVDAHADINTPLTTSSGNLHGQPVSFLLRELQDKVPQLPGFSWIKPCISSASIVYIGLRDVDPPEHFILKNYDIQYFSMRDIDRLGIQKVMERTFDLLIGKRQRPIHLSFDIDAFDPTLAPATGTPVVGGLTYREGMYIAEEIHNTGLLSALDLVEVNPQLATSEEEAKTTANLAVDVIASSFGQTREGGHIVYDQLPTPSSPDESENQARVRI
Protocol: (§1) The assay established the concentration of inhibitor that is required to reduce arginase activity by 50% (IC50).
(§2) Inhibition of arginase I (ARG I) and arginase II (ARG II) by Formula I and Formula II compounds is followed spectrophotometrically at 530 nm. The compound to be tested is dissolved in DMSO at an initial concentration 50-fold greater than its final concentration in the cuvette. 10 μl of the stock solution is diluted in 90 μl of the assay buffer that comprises 0.1M sodium phosphate buffer containing 130 mM NaCl, pH 7.4, to which is added ovalbumin (OVA) at a concentration of 1 mg/ml. Solutions of arginase I and II are prepared in 100 mM sodium phosphate buffer, pH 7.4 containing 1 mg/ml of OVA to give an arginase stock solution at a final concentration of 100 ng/ml.
(§3) To each well of a 96-well microtiter plate is add 40 μl of enzyme, 10 μl of an inventive compound and 10 μl of enzyme substrate (L-arginine+manganese sulfate). For wells that are used as positive controls, only the enzyme and its substrate are added, while wells used as negative controls contain only manganese sulfate.
(§4) After incubating the microtiter plate at 37° C. for 60 minutes, 150 μl of a urea reagent obtained by combining equal proportions (1:1) of reagents A and B is added to each well of the microtiter plate to stop the reaction. The urea reagent is made just before use by combining Reagent A (10 mM o-phthaldialdehyde, and 0.4% polyoxyethylene (23) lauryl ether (w/v) in 1.8 M sulfuric acid) with Reagent B (1.3 mM primaquine diphosphate, 0.4% polyoxyethylene (23) lauryl ether (w/v), 130 mM boric acid in 3.6 M sulfuric acid). After quenching the reaction mixture, the microtiter plate is allowed to stand for an additional 10 minutes at room temperature to allow color development. The inhibition of arginase is computed by measuring the optical density (OD) of the reaction mixture at 530 nm and normalizing the OD value to percent inhibition observed in the control. The normalized OD is then used to generate a dose-response curve by plotting the normalized OD values against log [concentration] and using regression analysis to compute the IC50 values.

human arginase I (ARG I) = molecular target: T2, human arginase I (ARG I) (Homo sapiens, UniProt P05089); experiment: Inhibition of arginase I, spectrophotometric urea assay at 530 nm; format: biochemical; conditions: read-out: Potency (ARG I)
T2 sequence (P05089 1-322): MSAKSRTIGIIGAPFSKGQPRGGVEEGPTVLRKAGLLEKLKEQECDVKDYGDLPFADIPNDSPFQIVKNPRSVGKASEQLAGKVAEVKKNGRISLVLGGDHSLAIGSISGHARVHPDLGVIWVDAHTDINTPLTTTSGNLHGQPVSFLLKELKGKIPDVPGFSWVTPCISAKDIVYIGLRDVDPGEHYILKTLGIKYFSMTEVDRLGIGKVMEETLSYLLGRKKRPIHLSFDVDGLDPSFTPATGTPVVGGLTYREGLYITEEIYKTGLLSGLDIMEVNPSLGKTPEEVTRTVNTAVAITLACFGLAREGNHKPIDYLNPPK
Protocol: as §1, §2, §3, §4

[1] = Formula I compounds, Table 2, read-out: Potency (ARG II)
[2] = Formula II compounds, Table 2-A, read-out: Potency (ARG)
[3] = Formula II compounds, Table 2-A

Row | Compound | pIC50 (arginase II (ARG II); [1]) | pIC50 (human arginase I (ARG I); Formula I compounds, Table 2) | pIC50 (arginase II (ARG II); [2]) | pIC50 (human arginase I (ARG I); [3])
1 | CCN(CC)C(=O)C1CCCN(CCC(N)(CCCCB(O)O)C(=O)O)C1 (stereo not drawn) [compound 23, 2-Amino-6-borono-2-[2-(3-diethylcarbamoyl-piperidin-1-yl)-ethyl]-hexanoic acid dihydrochloride] | 6.00 to 6.60 | 6.00 to 6.60 |  | 
2 | CNC(CCCCB(O)O)(CCN1CCCCC1)C(=O)O (stereo not drawn) [compound 149, 6-borono-2-(methylamino)-2-(2-(piperidin-1-yl)ethyl)hexanoic acid] | 6.60 to 10.00 | 6.60 to 10.00 |  | 
3 | NC(CCCCB(O)O)(C(=O)O)C1CCN(Cc2ccccc2)CC1 (stereo not drawn) [Example 87-A, 2-amino-2-(1-benzylpiperidin-4-yl)-6-boronohexanoic acid dihydrochloride] |  |  | 6.60 to 10.00 | 6.60 to 10.00
4 | COC[C@@H]1CCCN1CC[C@](N)(CCCCB(O)O)C(=O)O [compound 2, (R)-2-amino-6-borono-2-(2-((S)-2-(methoxymethyl)pyrrolidin-1-yl)ethyl)hexanoic acid dihydrochloride] | 6.00 to 6.60 | 6.00 to 6.60 |  | 
5 | NC(CCCCB(O)O)(C(=O)O)C1CNC1 (stereo not drawn) [18-A, 2-amino-2-(azetidin-3-yl)-6-boronohexanoic acid dihydrochloride] |  |  | 5.30 to 5.70 | 5.30 to 5.70
6 | NC(CCCCB(O)O)(C(=O)O)C1CCN(c2ncc(C(F)(F)F)cc2Cl)CC1 (stereo not drawn) [10-A, 2-amino-6-borono-2-(1-(3-chloro-5-(trifluoromethyl)pyridin-2-yl)piperidin-4-yl)hexanoic acid dihydrochloride] |  |  | 5.30 to 5.70 | 5.30 to 5.70
7 | NC(CCCCB(O)O)(C(=O)O)[C@H]1C[C@@H](NCc2cccc3ccccc23)C1 (stereo partly drawn) [Example 80-A, cis-2-amino-6-borono-2-(3-(naphthalen-1-ylmethylamino)cyclobutyl)hexanoic acid dihydrochloride] |  |  | 6.60 to 10.00 | 6.60 to 10.00
8 | NC(CCCCB(O)O)(CCN1CCCCC1C(=O)O)C(=O)O (stereo not drawn) [compound 52, 1-(3-amino-7-borono-3-carboxyheptyl)piperidine-2-carboxylic acid dihydrochloride] | 5.30 to 5.70 | 5.30 to 5.70 |  | 
9 | NC(CCCCB(O)O)(C(=O)O)C(O)C1CNC1 (stereo not drawn) [compound 113, 2-amino-2-(azetidin-3-yl(hydroxy)methyl)-6-boronohexanoic acid dihydrochloride] | 6.00 to 6.60 | 6.60 to 10.00 |  | 
10 | CN1CCCN(CCC(N)(CCCCB(O)O)C(=O)O)CC1 (stereo not drawn) [compound 49, 2-amino-6-borono-2-(2-(4-methyl-1,4-diazepan-1-yl)ethyl)hexanoic acid dihydrochloride] | 5.30 to 5.70 | 5.30 to 5.70 |  | 
11 | NC(CCCCB(O)O)(CCN1CCC(F)CC1)C(=O)O (stereo not drawn) [compound 47, 2-amino-6-borono-2-(2-(4-fluoropiperidin-1-yl)ethyl)hexanoic acid dihydrochloride] | 5.30 to 5.70 | 5.70 to 6.00 |  | 
12 | NC(CCCCB(O)O)(CCN1CCC(c2ccc(Cl)cc2)CC1)C(=O)O (stereo not drawn) [compound 121, 2-amino-6-borono-2-(2-(4-(4-chlorophenyl)piperidin-1-yl)ethyl)hexanoic acid dihydrochloride] | 6.00 to 6.60 | 6.00 to 6.60 |  | 
13 | NC(CCCCB(O)O)(C(=O)O)C1CCN(CCCc2ccc(F)cc2F)CC1 (stereo not drawn) [Example 52-A, 2-amino-6-borono-2-(1-(3-(2,4-difluorophenyl)propyl)piperidin-4-yl)hexanoic acid dihydrochloride] |  |  | 6.60 to 10.00 | 6.60 to 10.00
14 | CN(CCC(N)(CCCCB(O)O)C(=O)O)CC(O)c1ccccc1 (stereo not drawn) [compound 78, 2-amino-6-borono-2-(2-((2-hydroxy-2-phenylethyl)(methyl)amino)ethyl)hexanoic acid dihydrochloride] | 5.30 to 5.70 | 5.30 to 5.70 |  | 
15 | NC(CCCCB(O)O)(CCN1CCC[C@H]1CN1CCCC1)C(=O)O (stereo partly drawn) [compound 40, 2-amino-6-borono-2-(2-((S)-2-(pyrrolidin-1-ylmethyl)pyrrolidin-1-yl)ethyl)hexanoic acid trihydrochloride] | 5.30 to 5.70 | 5.70 to 6.00 |  | 
